Counter-ions that a name gives are not always drawn.
How the values were obtained:
rabbit aldolase = target: T1, rabbit aldolase (Oryctolagus cuniculus, UniProt P00883); test: aldolase enzyme activity assay, rabbit aldolase; type: biochemical; settings: surrogate for human aldolase
T1 sequence (P00883 1-364): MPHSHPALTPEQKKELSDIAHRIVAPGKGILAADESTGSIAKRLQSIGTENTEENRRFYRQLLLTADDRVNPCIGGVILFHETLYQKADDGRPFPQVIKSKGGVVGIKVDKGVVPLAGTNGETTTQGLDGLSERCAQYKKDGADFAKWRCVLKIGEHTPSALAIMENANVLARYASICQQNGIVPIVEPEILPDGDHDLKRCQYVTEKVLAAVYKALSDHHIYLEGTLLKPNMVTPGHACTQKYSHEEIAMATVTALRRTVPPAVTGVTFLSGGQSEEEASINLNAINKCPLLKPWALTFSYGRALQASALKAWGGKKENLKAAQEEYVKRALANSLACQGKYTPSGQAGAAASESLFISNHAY
Description: (§1) FIGS. 16A-16D depict an aldolase enzyme activity assay. (A) Cartoon and surface representation of aldolase with TRAPpep bound (magenta, sticks) (PDB entry 2pc4), overlapping the F16BP (green, sticks) substrate binding site (PDB entry 4ald), via PyMOL. (B) Coupled enzyme assay to measure aldolase activity via NADH consumption as measured at 340 nm. (C) Concentration-dependent effect of compounds on PfAldolase inhibition in the presence of PbTRAP peptide. Activity is normalized to the PbTRAP control, which reduces Vmax to 50% of enzyme without PbTRAP. (D) PfAldolase activity in the presence of compounds to determine direct inhibition of enzyme by the compounds. Activity is normalized to the PfAldolase control measured Vmax. Standard error means plotted for activity assays and standard deviation for SPR data.
(§2) Dose-Dependent Enzymatic Inhibition of Compounds on P. falciparum Aldolase and Rabbit Aldolase as a Surrogate for Human Aldolase.

[1] = target: P. falciparum aldolase in the presence of TRAP (Plasmodium falciparum, UniProt Q7KQL9); test: aldolase enzyme activity assay, P. falciparum aldolase in the presence of TRAP; type: biochemical; settings: in the presence of TRAP and the compounds
Sequence of P. falciparum aldolase in the presence of TRAP (Q7KQL9 whole entry): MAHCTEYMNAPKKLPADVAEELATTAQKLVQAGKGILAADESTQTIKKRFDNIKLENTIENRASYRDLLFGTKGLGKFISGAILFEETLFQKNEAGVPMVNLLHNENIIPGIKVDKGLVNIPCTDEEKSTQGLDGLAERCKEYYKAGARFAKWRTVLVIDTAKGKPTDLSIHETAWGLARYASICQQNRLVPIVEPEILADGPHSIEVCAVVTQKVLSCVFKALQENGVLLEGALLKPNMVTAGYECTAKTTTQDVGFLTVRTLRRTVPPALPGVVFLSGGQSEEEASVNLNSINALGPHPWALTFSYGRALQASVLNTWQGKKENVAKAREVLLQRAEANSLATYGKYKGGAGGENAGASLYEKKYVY
Description: as §1, §2

P. berghei sporozoites = test: trail radius of gliding sporozoites (ImageJ); type: cell-based; settings: 62.5 μM; 130-150 trail radii; p-value <0.0001
Experimental: The trail radius was measured using ImageJ and the statistical analyses to determine standard error mean and t-test were performed using GraphPad.
The gliding phenotype was altered to determine whether the compounds were having off-target effects. While quantifying the number of deposited trails, the trail diameter in the presence of compounds was altered. An altered trail diameter is more likely due to either a direct effect on the motor or an effect on sporozoite shape. The diameter of the circular trails deposited by the parasites in the DMSO control was measured and in the presence of three compounds at 62.5 μM (FIG. 8). This concentration was chosen because at higher concentrations, there were not enough sporozoite trails to measure to do a statistical analysis of the results. Using ImageJ, circles were fit to trails in multiple images to measure 130-150 trail radii. The average trail radii increased in the presence of compounds 4, 17, and 18 with a p-value <0.0001. The increase in average trail size was 6.3 microns, 2.5 microns, and 3.6, for compounds 4, 17, and 18, respectively.

SMILES | enzyme inhibition on rabbit aldolase (rabbit aldolase) | inhibition of P. falciparum aldolase [1] | increase in average trail size (trail radius) vs DMSO control (P. berghei sporozoites) [microns]
CCN(CC)S(=O)(=O)c1ccc(-c2csc(Nc3ccc(C)c(C)c3)n2)cc1 [Compound 3, 4-{2-[(3,4-dimethylphenyl)amino]-1,3-thiazol-4-yl}-N,N-diethylbenzenesulfonamide hydrobromide] | no enzyme inhibition | inhibited | 
O=C(Nc1ccc(-c2nc3cc4ccccc4cc3[nH]2)cc1)c1cccc(Br)c1 [Compound 17, 3-bromo-N-[4-(1H-naphtho[2,3-d]imidazol-2-yl)phenyl]benzamide] |  |  | 2.5

Reference: patent publication US20180087086A1, “CELL EGRESS AND INVASION INHIBITORS AND THEIR USE AS ANTIPARASITICAL AGENTS” (THE JOHNS HOPKINS UNIVERSITY, priority 2015, published 2018)
